Laboratory results from paper PMC6325200, “Effects of Microplate Type and Broth Additives on Microdilution MIC Susceptibility Assays” (Antimicrobial Agents and Chemotherapy, 2018).
≈ marks a conversion by molar mass, not a printed value. Where two headings read alike, the source gives them in different places.

What was measured:
[1] = system: MRSA ATCC 43300
Protocol: (§1) A positive control of a row of just the bacteria and a negative control of only the medium were included for every plate tested.
(§2) The compounds along with standard antibiotics were serially diluted 2-fold across the 96-well plates. […] A sample of each culture was then diluted 40-fold in fresh MH broth (in presence and absence of Tween) and incubated at 37°C for 2 to 3 h.
For experiments in the presence of surfactant, 2% beractant (25 mg/ml) was added to the mid-log-phase cultures and mixed gently and added to all the 96-well plates. For experiments in the presence of serum, a mixture of 50% of human serum along with 50% MHB was prepared and used throughout the experiment.

[2] = system: E. faecalis ATCC 29212; test: microbe, parasite or virus in culture; settings: n = 2
Protocol: as §1, §2

[3] = system: MSSA S. aureus ATCC 25923; test: microbe, parasite or virus in culture; settings: n = 2
Protocol: as §1, §2

[4] = system: S. aureus GISA NRS 2; ATCC 700698; test: microbe, parasite or virus in culture; settings: n = 2
Protocol: as §1, §2

[5] = system: S. pneumoniae ATCC 33440; test: microbe, parasite or virus in culture; settings: n = 2
Protocol: as §1, §2

[6] = system: S. pneumoniae ATCC 700677 (MDR); test: microbe, parasite or virus in culture; settings: n = 2
Protocol: as §1, §2

[7] = system: S. pyogenes ATCC 12344; settings: n = 2
Protocol: as §1, §2

[8] = system: MRSA; settings: literature value; cited from earlier work
Source text: TABLE 1 Literature MIC values for tested antibiotics | column: MIC (µg/ml) (reference[s]) / MRSA

[9] = cited from earlier work
Source text: Other assay additives can affect MIC values. […] Plasma protein binding has been implicated as a major factor limiting the active free concentration of many clinically important antibiotics ([37][–][42]).

[10] = cited from earlier work; remark: listed apart in the source
Source text: Other assay additives can affect MIC values. […] This in turn translates into reduced ...

[11] = cited from earlier work; for concentration found, % of that expected: PS microtiter plates, [14C]oritavancin
Protocol: The majority of antibiotic stock solutions for testing are prepared in water, phosphate buffer, or pH-adjusted aqueous solution (106 out of 139 reported in CLSI M100 [see Table 6A, “Solvents and diluents for preparation of stock solutions of antimicrobial agents”]) ([3]). […] Furthermore, the CLSI reference MIC quality control range tabulated for dalbavancin an ...

CCCCCCCCCCNCCN[C@@]1(C)C[C@H](O[C@H]2[C@H](Oc3c4cc5cc3Oc3ccc(cc3Cl)[C@@H](O)[C@@H](NC(=O)[C@@H](CC(C)C)NC)C(=O)N[C@@H](CC(N)=O)C(=O)N[C@H]5C(=O)N[C@H]3C(=O)N[C@H](C(=O)N[C@H](C(=O)O)c5cc(O)c(CNCP(=O)(O)O)c(O)c5-c5cc3ccc5O)[C@H](O)c3ccc(c(Cl)c3)O4)O[C@H](CO)[C@@H](O)[C@@H]2O)O[C@@H](C)[C@H]1O [Telavancin, telavancin]
MIC ([1]; Corning NBS, MH + 2% LHB, 2% LS, n = 2): 0.125 µg/mL
MIC ([1]; Corning NBS, MH + 2% LHB, 50% HS, n = 2): 0.25 µg/mL
MIC ([1]; Corning NBS, MH + 2% LHB, no additive, n = 2): 0.06 to 0.125 µg/mL
MIC ([1]; Corning NBS, MH + T80, 2% LS, n = 2): 0.06 to 0.125 µg/mL
MIC ([1]; Corning NBS, MH + T80, 50% HS, n = 2): 0.25 µg/mL
MIC ([1]; Corning NBS, MH, 2% LS, n = 2): 0.125 µg/mL (≈ 0.0712 µM)
MIC ([1]; Corning NBS, MH, 50% HS, n = 2): 0.25 µg/mL (≈ 0.142 µM)
MIC ([1]; Corning PS, MH + 2% LHB, 2% LS, n = 2): 0.125 µg/mL
MIC ([1]; Corning PS, MH + 2% LHB, 50% HS, n = 2): 0.125 to 0.25 µg/mL
MIC ([1]; Corning PS, MH + 2% LHB, no additive, n = 2): 0.06 µg/mL
MIC ([1]; Corning PS, MH + T80, 2% LS, n = 2): 0.06 to 0.25 µg/mL
MIC ([1]; Corning PS, MH + T80, 50% HS, n = 2): 0.25 µg/mL
MIC ([1]; Corning PS, MH, 2% LS, n = 2): 0.03 to 0.125 µg/mL
MIC ([1]; Corning PS, MH, 50% HS, n = 2): 0.125 to 0.25 µg/mL
MIC ([1]; Corning TC, MH + 2% LHB, 2% LS, n = 2): 0.25 to 1 µg/mL
MIC ([1]; Corning TC, MH + 2% LHB, 50% HS, n = 2): 2 to 8 µg/mL
MIC ([1]; Corning TC, MH + 2% LHB, no additive, n = 2): 0.125 µg/mL
MIC ([1]; Corning TC, MH + T80, 2% LS, n = 2): 0.125 to 0.25 µg/mL
MIC ([1]; Corning TC, MH + T80, 50% HS, n = 2): 0.25 to 1 µg/mL
MIC ([1]; Corning TC, MH, 2% LS, n = 2): 0.25 to 0.5 µg/mL
MIC ([1]; Corning TC, MH, 50% HS, n = 2): 0.5 to 1 µg/mL
MIC ([1]; Corning flat NBS plate, MHB +0.002% T80, no further additive, n = 2): 0.125 µg/mL (≈ 0.0712 µM)
MIC ([1]; Corning flat NBS plate, MHB −T80, no additive, n = 2): 0.03 to 0.06 µg/mL
MIC ([1]; Corning flat PS plate, MHB +0.002% T80, no further additive, n = 2): 0.03 to 0.06 µg/mL
MIC ([1]; Corning flat PS plate, MHB −T80, no additive, n = 2): 0.06 µg/mL (≈ 0.0342 µM)
MIC ([1]; Corning flat TC plate, MHB +0.002% T80, no further additive, n = 2): 0.125 to 0.25 µg/mL
MIC ([1]; Corning flat TC plate, MHB −T80, no additive, n = 2): 1 µg/mL (≈ 0.57 µM)
MIC ([1]; Nunc U TC plate, MHB +0.002% T80, n = 2): 0.25 to 0.5 µg/mL
MIC ([1]; Nunc U TC plate, MHB −T80, n = 2): 0.5 µg/mL (≈ 0.285 µM)
MIC ([1]; Nunc flat PS plate, MHB +0.002% T80, n = 2): 0.06 µg/mL (≈ 0.0342 µM)
MIC ([1]; Nunc flat PS plate, MHB −T80, n = 2): 0.06 µg/mL (≈ 0.0342 µM)
MIC ([1]; Nunc flat TC plate, MHB +0.002% T80, n = 2): 0.125 to 0.25 µg/mL
MIC ([1]; Nunc flat TC plate, MHB −T80, n = 2): 0.5 to 1 µg/mL
MIC ([1]; TC plates without additive): 0.5 to 1 µg/mL
MIC ([1]; Trek PS, MH + 2% LHB, 2% LS, n = 2): 0.06 to 0.25 µg/mL
MIC ([1]; Trek PS, MH + 2% LHB, 50% HS, n = 2): 0.06 to 0.125 µg/mL
MIC ([1]; Trek PS, MH + 2% LHB, no additive, n = 2): 0.015 µg/mL
MIC ([1]; Trek PS, MH + T80, 2% LS, n = 2): 0.06 µg/mL
MIC ([1]; Trek PS, MH + T80, 50% HS, n = 2): 0.125 to 0.25 µg/mL
MIC ([1]; Trek PS, MH, 2% LS, n = 2): 0.03 to 0.06 µg/mL
MIC ([1]; Trek PS, MH, 50% HS, n = 2): 0.125 µg/mL (≈ 0.0712 µM)
MIC ([1]; Trek flat PS plate, MHB +0.002% T80, no further additive, n = 2): 0.03 to 0.06 µg/mL
MIC ([1]; Trek flat PS plate, MHB −T80, no additive, n = 2): 0.03 to 0.06 µg/mL
MIC ([1]; all 3 untreated PS plates, with and without added T80): around 0.06 µg/ml
MIC ([2]; Corning NBS, MHB +T80): 0.06 µg/mL (≈ 0.0342 µM)
MIC ([2]; Corning NBS, MHB -T80): 0.06 to 0.125 µg/mL
MIC ([2]; Corning PS, MHB +T80): 0.03 to 0.06 µg/mL
MIC ([2]; Corning PS, MHB -T80): 0.125 to 0.5 µg/mL
MIC ([2]; Corning TC, MHB +T80): 0.06 to 0.125 µg/mL
MIC ([2]; Corning TC, MHB -T80): 0.5 to 4 µg/mL
MIC ([3]; Corning NBS, MHB +T80): 0.125 to 0.25 µg/mL
MIC ([3]; Corning NBS, MHB -T80): 0.06 to 0.125 µg/mL
MIC ([3]; Corning PS, MHB +T80): 0.25 to 0.5 µg/mL
MIC ([3]; Corning PS, MHB -T80): 0.25 to 2 µg/mL
MIC ([3]; Corning TC, MHB +T80): 0.25 µg/mL (≈ 0.142 µM)
MIC ([3]; Corning TC, MHB -T80): 0.5 to 2 µg/mL
MIC ([4]; Corning NBS, MHB +T80): 0.125 µg/mL (≈ 0.0712 µM)
MIC ([4]; Corning NBS, MHB -T80): 0.06 to 0.125 µg/mL
MIC ([4]; Corning PS, MHB +T80): 0.125 µg/mL (≈ 0.0712 µM)
MIC ([4]; Corning PS, MHB -T80): 0.125 to 0.5 µg/mL
MIC ([4]; Corning TC, MHB +T80): 0.25 µg/mL (≈ 0.142 µM)
MIC ([4]; Corning TC, MHB -T80): 1 to 8 µg/mL
MIC ([5]; Corning NBS, MHB +T80): 0.125 µg/mL (≈ 0.0712 µM)
MIC ([5]; Corning NBS, MHB -T80): 0.125 µg/mL (≈ 0.0712 µM)
MIC ([5]; Corning PS, MHB +T80): 0.125 µg/mL (≈ 0.0712 µM)
MIC ([5]; Corning PS, MHB -T80): 0.5 to 4 µg/mL
MIC ([5]; Corning TC, MHB +T80): 0.25 µg/mL (≈ 0.142 µM)
MIC ([5]; Corning TC, MHB -T80): 1 to 2 µg/mL
MIC ([6]; Corning NBS, MHB +T80): 0.06 to 0.125 µg/mL
MIC ([6]; Corning NBS, MHB -T80): 0.03 to 0.06 µg/mL
MIC ([6]; Corning PS, MHB +T80): 0.06 to 0.125 µg/mL
MIC ([6]; Corning PS, MHB -T80): 0.06 µg/mL (≈ 0.0342 µM)
MIC ([6]; Corning TC, MHB +T80): 0.125 µg/mL (≈ 0.0712 µM)
MIC ([6]; Corning TC, MHB -T80): 0.5 to 2 µg/mL
MIC ([7]; Corning NBS, MHB +T80): 0.003 to 0.015 µg/mL
MIC ([7]; Corning NBS, MHB -T80): ≤ 0.003 µg/mL
MIC ([7]; Corning PS, MHB -T80): ≤ 0.003 µg/mL
MIC ([7]; Corning TC, MHB +T80): 0.007 to 0.015 µg/mL
MIC ([7]; Corning TC, MHB -T80): ≤ 0.003 µg/mL
MIC (literature) [8]: 0.06 ([66], [67]) µg/ml
protein binding ([9]; literature values, reference given): 90 to 93%
half-life [10]: 8 h

oritavancin
concentration found, % of that expected ([11]; 1 µg/ml): < 10%
concentration found, % of that expected ([11]; 4 µg/ml): 35%
concentration found, % of that expected ([11]; 16 µg/ml): approximately 70%
underestimation of MIC values in the absence of added polysorbate 80 [11]: 16- to 32 fold
protein binding [9]: 82 to 90%
half-life ([10]; in vivo): 240 to 408 h
